Literature values as cited in US20140155265A1, “HERBICIDAL COMPOSITIN COMPRISING PINOXADEN AND FLUROXYPYR AND METHODS OF USE THEREOF” (priority 2011, published 2014).

Conditions: Pesticide Manual 15th edition

For Nc1c(Cl)c(F)nc(OCC(=O)O)c1Cl [Fluoroxypyr (free carboxylic acid), Fluoroxypyr], the pKa is listed as 2.94.
